Non-standard residues stand in square brackets, D forms with d. Residues, ends and D or L forms follow the SMILES beside them. PKcap1 = N-terminal cap C18 diacid-γGlu-mPEG2; PKcap2 = N-terminal cap Aryl(4-I)-Gly-mPEG2; Bip = N[C@@H](Cc1ccc(-c2ccccc2)cc1)C(=O)O; Phe(4-I) = N[C@@H](Cc1ccc(I)cc1)C(=O)O; Nle = CCCC[C@H](N)C(=O)O; dAbu = CC[C@@H](N)C(=O)O; Aib = CC(C)(N)C(=O)O
Each molecule was assayed against human MC3R (human, UniProt P41968 1-323) (assay: cell-based or functional assay). Conditions: not given.
human MC3R, sequence (P41968 whole entry): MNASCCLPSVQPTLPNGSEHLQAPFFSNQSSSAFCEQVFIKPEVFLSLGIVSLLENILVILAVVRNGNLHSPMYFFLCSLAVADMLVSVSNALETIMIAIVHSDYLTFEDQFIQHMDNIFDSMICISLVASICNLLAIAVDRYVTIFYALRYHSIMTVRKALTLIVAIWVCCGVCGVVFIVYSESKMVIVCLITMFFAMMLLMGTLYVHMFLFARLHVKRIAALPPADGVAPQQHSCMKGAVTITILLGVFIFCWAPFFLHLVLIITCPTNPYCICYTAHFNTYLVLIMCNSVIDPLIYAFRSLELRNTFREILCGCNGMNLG

Row | Molecule | MC3R cAMP (EC50) | MC3R selectivity (relative to MC4R)
1 | PKcap2-G[Nle][dA]HFR[dW]DRFG-OH [CTX-1148] | 1.5 nM | 1200
2 | PKcap2-GV[Nle][dA]HFR[dW]DRFG-OH [CTX-1150] | 2.9 nM | 577
3 | PKcap2-G[Nle][dA]HFR[dW]DR[dF]G-OH [CTX-1154] | 5.8 nM | 1070
4 | PKcap2-G[dY]V[Nle][dA]HFR[dW]D[dR]FG-OH [CTX-1156] | 8.6 nM | 86
5 | PKcap1-G[dY]V[Nle][dA]HFR[dW]DRFG-OH [CTX-1151] | 299 nM | 126
6 | PKcap1-G[Nle][dA]HFR[dW]DR[dF]G-OH [CTX-1153] | 5120 nM | 0.13

The molecules below were run against human MC4R (Homo sapiens, UniProt P32245) (assay: Intracellular cAMP levels in live cells, MC3R selectivity relative to MC4R). Conditions: cAMP assays in human MC3R and human MC4R stable cell lines.
Format: cell-based
Description: The stable cell lines were grown and maintained in selection media consisting of Dulbecco's modified Eagle media (DMEM) with 4.5 g/l D-glucose, and 4 mM L-glutamine (Thermo Fisher Scientific, Waltham, MA), supplemented with 10% fetal bovine serum, 100 units/ml penicillin, 100 μg/ml streptomycin, 2.5 μg/ml amphotericin B, 200 μg/ml hygromycin B (for positive selection of the GScAMP22f luciferase reporter), and Geneticin™ (G418) 700 μg/ml (for MC3R or MC4R selection). Actual serum concentration during the assay is estimated to be about 1%. Cell line identity is routinely verified by qPCR and MC3R- and MC4R-specific oligonucleotides.
The assay for the determination of the CAMP response in live cells was described previously. […] Ccells were seeded at a density of 20,000 cells per well using 384-well poly-D lysine-coated, clear bottom, and black-wall assay plates (Corning Inc. Corning, NJ). Cells were allowed to attach to the plates for 18 to 24 h after which growth media was removed and 20 ul of 4% D-luciferin (Promega) in CO2 independent, serum-free medium (Thermo Fisher Scientific) was added to each well. […] Intracellular cAMP levels were measured using an FDSS 7000EX Functional Drug Screening System (Hamamatsu Photonics, Hamamatsu, Japan) in the Center for Chemical Genomics at the Life Sciences Institute. This instrument allowed the in-line addition of test-peptides and receptor agonists while simultaneously acquiring the luminescence signal from live cells. […] A submaximal forskolin (20 μM) concentration was also included to serve as a normalization reference to account for cell number variations and differences in assay transducer efficiency between cell lines.
With this set up it was possible to evaluate the direct agonist effect of the test-peptides on the MC3R and MC4R cell lines during measurement window 1, while the antagonist profile in the presence of EC90 α-MSH was determined on measurement window 2. […] EC50 or IC50 potency values were determined by non-linear regression by fitting the data to a sigmoid four-parameter variable slope model using the GraphPad Prism version 8.4 software package (San Diego CA).

human MC4R, sequence (P32245 whole entry): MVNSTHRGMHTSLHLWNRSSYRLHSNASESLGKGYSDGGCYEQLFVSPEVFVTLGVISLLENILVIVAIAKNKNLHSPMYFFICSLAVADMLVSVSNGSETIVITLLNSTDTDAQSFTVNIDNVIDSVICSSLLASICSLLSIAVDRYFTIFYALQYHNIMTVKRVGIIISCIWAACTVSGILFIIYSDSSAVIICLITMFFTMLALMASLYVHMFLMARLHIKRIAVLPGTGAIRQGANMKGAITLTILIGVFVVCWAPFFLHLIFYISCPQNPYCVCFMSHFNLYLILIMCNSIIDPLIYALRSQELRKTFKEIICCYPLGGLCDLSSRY

Row | Molecule | MC3R selectivity (relative to MC4R)
7 | CCCC[C@H](NC(C)=O)C(=O)N[C@H](C)C(=O)N[C@@H](Cc1c[nH]cn1)C(=O)N[C@@H](Cc1ccc(I)cc1)C(=O)N[C@@H](CCCNC(=N)N)C(=O)N[C@H](Cc1c[nH]c2ccccc12)C(=O)N[C@@H](CC(=O)O)C(=O)N[C@@H](CCCNC(=N)N)C(N)=O [CTX-1170, Nle-D-Ala-His-Phe(4-I)-Arg-D-Trp-Asp-Arg] (Ac-[Nle][dA]H[Phe(4-I)]R[dW]DR-NH2) | 67
8 | CCCC[C@H](NC(C)=O)C(=O)N[C@@H](C(=O)N[C@@H](Cc1c[nH]cn1)C(=O)N[C@@H](Cc1ccccc1)C(=O)N[C@@H](CCCNC(=N)N)C(=O)N[C@H](Cc1c[nH]c2ccccc12)C(=O)N[C@@H](CC(=O)O)C(=O)N[C@@H](CCCNC(=N)N)C(=O)N[C@@H](Cc1ccccc1)C(=O)NCC(=O)O)C(C)C [CTX-1181, Nle-D-Val-His-Phe-Arg-D-Trp-Asp-Arg-Phe-Gly] (Ac-[Nle][dV]HFR[dW]DRFG-OH) | 718
9 | CCCC[C@H](NC(C)=O)C(=O)N[C@H](C)C(=O)N[C@@H](Cc1c[nH]cn1)C(=O)N[C@@H](Cc1ccc(I)cc1)C(=O)N[C@@H](CCCNC(=N)N)C(=O)N[C@H](Cc1ccccc1)C(=O)N[C@@H](CC(=O)O)C(=O)N[C@@H](CCCNC(=N)N)C(=O)N[C@@H](Cc1ccccc1)C(=O)NCC(=O)O [CTX-1503, Nle-D-Ala-His-Phe(4-I)-Arg-D-Phe-Asp-Arg-Phe-Gly] (Ac-[Nle][dA]H[Phe(4-I)]R[dF]DRFG-OH) | 214
10 | CCCC[C@H](NC(C)=O)C(=O)NC(C)(C)C(=O)N[C@@H](Cc1c[nH]cn1)C(=O)N[C@@H](Cc1ccc(I)cc1)C(=O)N[C@@H](CCCNC(=N)N)C(=O)N[C@H](Cc1c[nH]c2ccccc12)C(=O)NCC(N)=O [CTX-1545, Nle-Aib-His-Phe(4-I)-Arg-D-Trp-Gly] (Ac-[Nle][Aib]H[Phe(4-I)]R[dW]G-NH2) | 14
11 | CCCC[C@H](NC(C)=O)C(=O)N[C@H](C)C(=O)N[C@@H](Cc1c[nH]cn1)C(=O)N[C@@H](Cc1ccccc1)C(=O)N[C@@H](CCCNC(=N)N)C(=O)N[C@H](Cc1c[nH]c2ccccc12)C(=O)N[C@@H](Cc1ccccc1)C(N)=O [CTX-1541, Nle-D-Ala-His-Phe-Arg-D-Trp-Phe] (Ac-[Nle][dA]HFR[dW]F-NH2) | 9
12 | CCCC[C@H](NC(=O)[C@@H](NC(=O)[C@@H](Cc1ccc(O)cc1)NC(=O)CNC(=O)COCCOCCNC(=O)CNC(=O)CCc1ccc(I)cc1)C(C)C)C(=O)N[C@H](C)C(=O)N[C@@H](Cc1c[nH]cn1)C(=O)N[C@@H](Cc1ccccc1)C(=O)N[C@@H](CCCNC(=N)N)C(=O)N[C@H](Cc1c[nH]c2ccccc12)C(=O)N[C@@H](CC(=O)O)C(=O)N[C@H](CCCNC(=N)N)C(=O)N[C@@H](Cc1ccccc1)C(=O)NCC(=O)O [CTX-1156, Gly-D-Tyr-Val Nle-D-Ala-His-Phe-Arg-D-Trp-Asp-D-Arg-Phe-Gly] | 86
13 | CCCC[C@H](NC(C)=O)C(=O)N[C@H](C)C(=O)N[C@@H](Cc1c[nH]cn1)C(=O)N[C@@H](Cc1ccccc1)C(=O)N[C@@H](CCCNC(=N)N)C(=O)N[C@H](Cc1c[nH]c2ccccc12)C(=O)N[C@@H](CC(=O)O)C(=O)N[C@@H](CCCNC(=N)N)C(N)=O [CTX-1163, Nle-D-Ala-His-Phe-Arg-D-Trp-Asp-Arg] (Ac-[Nle][dA]HFR[dW]DR-NH2) | 282
14 | CCCC[C@H](NC(C)=O)C(=O)N[C@H](C)C(=O)N[C@@H](Cc1c[nH]cn1)C(=O)N[C@@H](Cc1ccc(I)cc1)C(=O)N[C@H](CCCNC(=N)N)C(=O)N[C@@H](Cc1c[nH]c2ccccc12)C(=O)N[C@@H](CC(=O)O)C(=O)N[C@@H](CCCNC(=N)N)C(=O)N[C@@H](Cc1ccccc1)C(=O)NCC(=O)O [CTX-1501, Nle-D-Ala-His-Phe(4-I)-D-Arg-Trp-Asp-Arg-Phe-Gly] (Ac-[Nle][dA]H[Phe(4-I)][dR]WDRFG-OH) | 0.01
15 | CC(=O)N[C@@H](CO)C(=O)NCC(=O)N[C@@H](Cc1c[nH]cn1)C(=O)N[C@H](Cc1ccccc1)C(=O)N[C@@H](CCCNC(=N)N)C(=O)N[C@H](Cc1c[nH]c2ccccc12)C(=O)N[C@@H](CC(=O)O)C(N)=O [CTX-1111, Ser-Gly-His-D-Phe-Arg-D-Trp-Asp] (Ac-SGH[dF]R[dW]D-NH2) | 0.1
16 | CCCC[C@H](NC(C)=O)C(=O)N[C@H](C)C(=O)N[C@@H](Cc1c[nH]cn1)C(=O)N[C@@H](Cc1ccccc1)C(=O)N[C@@H](CCCCN)C(=O)N[C@H](Cc1c[nH]c2ccccc12)C(=O)N[C@@H](CC(=O)O)C(=O)N[C@@H](CCCNC(=N)N)C(=O)N[C@@H](Cc1ccccc1)C(=O)NCC(=O)O [CTX-1523, Nle-D-Ala-His-Phe-Lys-D-Trp-Asp-Arg-Phe-Gly] (Ac-[Nle][dA]HFK[dW]DRFG-OH) | 5,321
17 | CCCC[C@H](NC(C)=O)C(=O)N[C@H](C)C(=O)N[C@@H](Cc1c[nH]cn1)C(=O)N[C@@H](Cc1ccccc1)C(=O)N[C@@H](CCCNC(=N)N)C(=O)N[C@H](Cc1c[nH]c2ccccc12)C(=O)N[C@H](Cc1ccccc1)C(=O)N[C@@H](CCCNC(=N)N)C(=O)N[C@@H](Cc1ccccc1)C(=O)NCC(=O)O [CTX-1530, Nle-D-Ala-His-Phe-Arg-D-Trp-D-Phe-Arg-Phe-Gly] (Ac-[Nle][dA]HFR[dW][dF]RFG-OH) | 15
18 | CCCC[C@H](NC(C)=O)C(=O)N[C@H](C)C(=O)N[C@@H](Cc1c[nH]cn1)C(=O)N[C@@H](Cc1ccc(-c2ccccc2)cc1)C(=O)N[C@@H](CCCNC(=N)N)C(=O)N[C@H](Cc1c[nH]c2ccccc12)C(=O)N[C@@H](CC(=O)O)C(=O)N[C@@H](CCCNC(=N)N)C(=O)N[C@@H](Cc1ccccc1)C(=O)NCC(N)=O [CTX-1168, Nle-D-Ala-His-Bip-Arg-D-Trp-Asp-Arg-Phe-Gly] (Ac-[Nle][dA]H[Bip]R[dW]DRFG-NH2) | 485
19 | CC[C@@H](NC(=O)[C@H](CCC(=O)O)NC(=O)[C@@H](NC(=O)[C@H](Cc1ccc(O)cc1)NC(C)=O)C(C)C)C(=O)N[C@@H](Cc1c[nH]cn1)C(=O)N[C@@H](Cc1ccc(I)cc1)C(=O)N[C@@H](CCCNC(=N)N)C(=O)N[C@H](Cc1c[nH]c2ccccc12)C(=O)N[C@@H](CC(=O)O)C(=O)N[C@@H](CCCNC(=N)N)C(=O)N[C@@H](Cc1ccccc1)C(=O)NCC(=O)O [CTX-1194, Tyr-Val-Glu-D-Abu-His-Phe(4-I)-Arg-D-Trp-Asp-Arg-Phe-Gly] (Ac-YVE[dAbu]H[Phe(4-I)]R[dW]DRFG-OH) | 49
20 | CCCC[C@H](NC(C)=O)C(=O)N[C@H](C)C(=O)N[C@@H](Cc1c[nH]cn1)C(=O)N[C@@H](Cc1ccccc1)C(=O)N[C@@H](CCCNC(=N)N)C(=O)N[C@H](Cc1c[nH]c2ccccc12)C(=O)N[C@@H](CC(=O)O)C(=O)N[C@@H](CCCNC(=N)N)C(=O)N[C@H](Cc1ccccc1)C(=O)N[C@@H](CCCCN)C(=O)O [CTX-1160, Nle-D-Ala-His-Phe-Arg-D-Trp-Asp-Arg-D-Phe-Lys] (Ac-[Nle][dA]HFR[dW]DR[dF]K-OH) | 1,257
21 | CCCC[C@H](NC(=O)[C@@H](NC(=O)[C@@H](N)Cc1ccc(O)cc1)C(C)C)C(=O)N[C@H](CC)C(=O)N[C@@H](Cc1c[nH]cn1)C(=O)N[C@@H](Cc1ccccc1)C(=O)N[C@@H](CCCNC(=N)N)C(=O)N[C@H](Cc1c[nH]c2ccccc12)C(=O)N[C@@H](CC(=O)O)C(=O)N[C@@H](CCCNC(=N)N)C(=O)N[C@@H](Cc1ccccc1)C(=O)NCC(=O)O [CTX-1135, Tyr-Val-Nle-D-Abu-His-Phe-Arg-D-Trp-Asp-Arg-Phe-Gly] (H-YV[Nle][dAbu]HFR[dW]DRFG-OH) | 667

Source: patent US20240287154A1, “MC3R AGONIST PEPTIDES” (The Regents of the University of Michigan, priority 2021, published 2024)
